Reference: BindingDB's records for patent US20260034094 (Kojin Therapeutics, 2026)

Target: T1, Glutamate--cysteine ligase catalytic subunit (Homo sapiens, UniProt P48506)
T1 sequence (P48506 whole entry): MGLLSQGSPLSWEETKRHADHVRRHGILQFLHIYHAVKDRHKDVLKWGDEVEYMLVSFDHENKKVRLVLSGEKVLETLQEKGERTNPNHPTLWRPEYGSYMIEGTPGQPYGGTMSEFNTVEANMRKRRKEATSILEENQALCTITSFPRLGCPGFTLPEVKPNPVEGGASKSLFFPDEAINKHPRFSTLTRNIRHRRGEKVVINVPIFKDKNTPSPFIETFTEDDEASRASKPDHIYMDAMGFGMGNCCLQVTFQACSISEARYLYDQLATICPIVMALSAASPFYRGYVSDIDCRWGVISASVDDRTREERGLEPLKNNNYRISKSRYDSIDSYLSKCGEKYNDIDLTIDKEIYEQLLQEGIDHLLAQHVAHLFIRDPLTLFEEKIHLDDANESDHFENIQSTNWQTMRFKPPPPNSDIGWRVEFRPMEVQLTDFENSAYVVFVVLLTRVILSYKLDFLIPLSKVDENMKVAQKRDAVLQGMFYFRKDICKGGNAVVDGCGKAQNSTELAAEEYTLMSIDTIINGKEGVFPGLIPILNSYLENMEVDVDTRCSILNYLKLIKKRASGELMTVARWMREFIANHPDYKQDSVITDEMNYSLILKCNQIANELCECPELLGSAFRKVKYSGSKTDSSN
Assay: GCL Enzyme Profiling Assay
Experimental: Compound in pure DMSO was stamped in assay plates (Greiner black 384-well) or appropriate containers using a D300e digital dispenser (TECAN) and the final DMSO concentration was normalized to 1%. A 5 mL, or in the present case, 5 μL mixture of human recombinant GCL (final concentration: 5 nM) and ATP (final concentration: 0.6 mM) was added and the solution was incubated at room temperature (22° C.) for 1 h. […] The reaction was stopped after 1 h or in the present case, 2 h by addition of 5 mL, or in the present case, 5 μL ADP GLO Reagent (Promega). The resulting solution was incubated for 2 h at room temperature. This was then followed by addition of 5 mL, or in the present case, 5 μL ADP GLO Detection. After incubation at room temperature for 30 min, the plates were read on a plate reader (PheraStar) using a luminescence protocol to quantify the GCL enzyme activity from each reaction solution.

IC50, < 20 µM:
Cc1ccc(-c2ccc(C(CCS(=N)(=O)CC[C@H](N)C(=O)O)C(F)(F)F)cc2)c(Cl)c1 (some centres undefined) [US20260034094, Compound 279]
Cc1ccc(-c2ccc(C(CCS(=N)(=O)CC[C@H](N)C(=O)O)C(F)(F)F)cc2)c(C)c1 (some centres undefined) [US20260034094, Compound 280]
N=S(=O)(CCC(c1ccc(-c2ccc(F)cc2O)cc1)C(F)(F)F)CC[C@H](N)C(=O)O (some centres undefined) [US20260034094, Compound 281]
N=S(=O)(CCC(c1ccc(-c2ccc(Cl)cc2O)cc1)C(F)(F)F)CC[C@H](N)C(=O)O (some centres undefined) [US20260034094, Compound 282]
Cc1cc(Cl)ccc1-c1cccc(C(CCS(=N)(=O)CC[C@H](N)C(=O)O)C(F)(F)F)c1 (some centres undefined) [US20260034094, Compound 283]
Cc1ccc(-c2cccc(C(CCS(=N)(=O)CC[C@H](N)C(=O)O)C(F)(F)F)c2)c(F)c1 (some centres undefined) [US20260034094, Compound 284]
Cc1ccc(-c2cccc(C(CCS(=N)(=O)CC[C@H](N)C(=O)O)C(F)(F)F)c2)cc1 (some centres undefined) [US20260034094, Compound 285]
Cc1cccc(-c2cccc(C(CCS(=N)(=O)CC[C@H](N)C(=O)O)C(F)(F)F)c2)c1 (some centres undefined) [US20260034094, Compound 286]
N=S(=O)(CCC(c1cccc(-c2cccc(F)c2)c1)C(F)(F)F)CC[C@H](N)C(=O)O (some centres undefined) [US20260034094, Compound 287]
N=S(=O)(CCC(c1cccc(-c2ccc(Cl)cc2Cl)c1)C(F)(F)F)CC[C@H](N)C(=O)O (some centres undefined) [US20260034094, Compound 288]
Cc1ccc(-c2cccc(C(CCS(=N)(=O)CC[C@H](N)C(=O)O)C(F)(F)F)c2)cc1F (some centres undefined) [US20260034094, Compound 290]
N=S(=O)(CCC(c1ccc(S(=O)(=O)Cc2ccccc2)cc1)C(F)(F)F)CC[C@H](N)C(=O)O (some centres undefined) [US20260034094, Compound 291]
N=S(=O)(CCC(c1cccc2ccccc12)C(F)(F)F)CC[C@H](N)C(=O)O (some centres undefined) [US20260034094, Compound 311]
N=S(=O)(CCC(c1ccccn1)C(F)(F)F)CC[C@H](N)C(=O)O (some centres undefined) [US20260034094, Compound 313]
N=S(=O)(CCC(c1ccc(-c2ccccc2)cc1Cl)C(F)(F)F)CC[C@H](N)C(=O)O (some centres undefined) [US20260034094, Compound 315]
N=S(=O)(CCC(c1ccc(Oc2ccccc2)cc1)C(F)(F)F)CC[C@H](N)C(=O)O (some centres undefined) [US20260034094, Compound 316]
N=S(=O)(CCC(c1ccc(-c2ccc(Cl)cc2Cl)cn1)C(F)(F)F)CC[C@H](N)C(=O)O (some centres undefined) [US20260034094, Compound 317]
N=S(=O)(CCC(c1ccc(Oc2ccc(Cl)cc2Cl)cc1)C(F)(F)F)CC[C@H](N)C(=O)O (some centres undefined) [US20260034094, Compound 318]
N=S(=O)(CCC(CO)C(F)(F)F)CC[C@H](N)C(=O)O (some centres undefined) [US20260034094, Compound 320]
N=S(=O)(CC[C@H](N)C(=O)O)CCC(O)(c1ccn(-c2ccc(Cl)cc2Cl)n1)C(F)(F)F (some centres undefined) [US20260034094, Compound 336]
N=S(=O)(CC[C@H](N)C(=O)O)CCC(O)(c1cc(-c2ccc(Cl)cc2Cl)cs1)C(F)(F)F (some centres undefined) [US20260034094, Compound 337]
N=S(=O)(CC[C@H](N)C(=O)O)CCC(O)(c1ccc(OC2CCCCC2)cc1)C(F)(F)F (some centres undefined) [US20260034094, Compound 339]
N=S(=O)(CC[C@H](N)C(=O)O)CCC(O)([C@H]1CC[C@H](c2ccc(Cl)cc2Cl)CC1)C(F)(F)F (some centres undefined) [US20260034094, Compound 340]
N=S(=O)(CC[C@H](N)C(=O)O)CCC(O)([C@H]1CC[C@@H](c2ccc(Cl)cc2Cl)CC1)C(F)(F)F (some centres undefined) [US20260034094, Compound 341]
N=S(=O)(CC[C@H](N)C(=O)O)CCC(O)(c1ccc(Oc2ccc(Cl)cc2Cl)cc1)C(F)(F)F (some centres undefined) [US20260034094, Compound 342]
N=S(=O)(CC[C@H](N)C(=O)O)CCC(O)(c1cnc(-c2ccc(Cl)cc2Cl)nc1)C(F)(F)F (some centres undefined) [US20260034094, Compound 366]
N=S(=O)(CC[C@H](N)C(=O)O)CCC(O)(c1cnc(-c2ccc(Cl)cc2Cl)cn1)C(F)(F)F (some centres undefined) [US20260034094, Compound 367]
N=S(=O)(CC[C@H](N)C(=O)O)CCC(O)(c1ccc2ccccc2n1)C(F)(F)F (some centres undefined) [US20260034094, Compound 373]
N=S(=O)(CCC(c1ccc2[nH]nnc2c1)C(F)(F)F)CC[C@H](N)C(=O)O (some centres undefined) [US20260034094, Compound 393]
N=S(=O)(CCC(c1ccccc1O)C(F)(F)F)CC[C@H](N)C(=O)O (some centres undefined) [US20260034094, Compound 397]
N=S(=O)(CCC(c1ccc2[nH]cnc2c1)C(F)(F)F)CC[C@H](N)C(=O)O (some centres undefined) [US20260034094, Compound 399]
N=S(=O)(CC[C@H](N)C(=O)O)CCC1(c2ccc(Oc3ccc(Cl)cc3Cl)cc2)CCC1 (some centres undefined) [US20260034094, Compound 403]
N=S(=O)(CCC(N1CCN(c2ccc(Cl)cc2Cl)CC1)C(F)(F)F)CC[C@H](N)C(=O)O (some centres undefined) [US20260034094, Compound 423]
Cc1ccccc1-c1ccc(C(O)(CCS(=N)(=O)CC[C@H](N)C(=O)O)C(F)(F)F)cc1 (some centres undefined) [US20260034094, Compound 429]
Cc1cc(Cl)ccc1-c1ccc(C(O)(CCS(=N)(=O)CC[C@H](N)C(=O)O)C(F)(F)F)cc1 (some centres undefined) [US20260034094, Compound 430]
N=S(=O)(CC[C@H](N)C(=O)O)CCC(O)(c1ccc(-c2ccc(Cl)cc2)cc1)C(F)(F)F (some centres undefined) [US20260034094, Compound 431]
Cc1ccc(-c2ccc(C(O)(CCS(=N)(=O)CC[C@H](N)C(=O)O)C(F)(F)F)cc2)c(Cl)c1 (some centres undefined) [US20260034094, Compound 432]
Cn1ncc(-c2ccc(C(O)(CCS(=N)(=O)CC[C@H](N)C(=O)O)C(F)(F)F)cc2)cc1=O (some centres undefined) [US20260034094, Compound 433]
N=S(=O)(CC[C@H](N)C(=O)O)CCC(O)(c1cccc(-c2ccccc2)c1)C(F)(F)F (some centres undefined) [US20260034094, Compound 435]
Cc1ccc(-c2ccc(C(O)(CCS(=N)(=O)CC[C@H](N)C(=O)O)C(F)(F)F)cc2)c(F)c1 (some centres undefined) [US20260034094, Compound 437]
Cc1cc(C(O)(CCS(=N)(=O)CC[C@H](N)C(=O)O)C(F)(F)F)ccc1-c1ccc(Cl)cc1Cl (some centres undefined) [US20260034094, Compound 443]
N=S(=O)(CC[C@H](N)C(=O)O)CCC(O)(c1ncc(-c2ccc(Cl)cc2Cl)cn1)C(F)(F)F (some centres undefined) [US20260034094, Compound 462]
N=S(=O)(CC[C@H](N)C(=O)O)CCC(O)(c1ncc(-c2ccccc2)cn1)C(F)(F)F (some centres undefined) [US20260034094, Compound 467]
N[C@@H](CCS(=O)(=O)CCC(O)(c1ncc(-c2ccc(Cl)cc2Cl)cn1)C(F)(F)F)C(=O)O (some centres undefined) [US20260034094, Compound 470]
Cc1ccccc1-c1ccc(C(O)(CCS(=N)(=O)CC[C@H](N)C(=O)O)C(F)(F)F)nc1 (some centres undefined) [US20260034094, Compound 471]
Cn1cc(-c2ccc(C(O)(CCS(=N)(=O)CC[C@H](N)C(=O)O)C(F)(F)F)nc2)cn1 (some centres undefined) [US20260034094, Compound 472]
Cc1cc(Cl)ccc1-c1cnc(C(O)(CCS(=N)(=O)CC[C@H](N)C(=O)O)C(F)(F)F)nc1 (some centres undefined) [US20260034094, Compound 474]
N=S(=O)(CC[C@H](N)C(=O)O)CCC(O)(c1ccc(C2CCCCC2)cn1)C(F)(F)F (some centres undefined) [US20260034094, Compound 476]
N=S(=O)(CC[C@H](N)C(=O)O)CCC(O)(c1ccc(-c2ccco2)cn1)C(F)(F)F (some centres undefined) [US20260034094, Compound 481]
